Values quoted from earlier work as cited in paper PMC3099137 (Bioorganic & medicinal chemistry, 2011).

What was measured:
[1] = mice, attributed to in vivo defluorination
[2] = target: EGFR tyrosine kinase; settings: read-out: IC50, inhibition of EGFR tyrosine kinase activity

| Structure (SMILES) | bone uptake (in words) [1] | IC50 [2] [nM] |
| --- | --- | --- |
| COc1cc2ncnc(Nc3ccc([18F])c(Cl)c3)c2cc1OC [4-(3-chloro-4-[^18F]fluoroanilino)-6,7-dimethoxy-quinazoline] | high bone uptake |  |
| COc1cc2ncnc(Nc3cccc(Br)c3)c2cc1OC [PD153035, 6,7-dimethoxy-4-(3-bromoanilino)quinazoline] |  | 0.025 |
| CCOc1cc2ncnc(Nc3cccc(Br)c3)c2cc1OCC [diethoxy- derivative] |  | 0.006 |
